This is an account of results in US11905279B1, “Benzylidene derivatives of fenobam as anti-inflammatory agents” (KING FAISAL UNIVERSITY, priority 2023, dated 2024).

Broadly, the inhibition is the drop in the measured response relative to a control, in per cent.

SMILES strings stand for the structures.

One test has as its target T1, human COX-2 (Homo sapiens, UniProt P35354).
T1 construct: purchased
T1 sequence (P35354 18-604): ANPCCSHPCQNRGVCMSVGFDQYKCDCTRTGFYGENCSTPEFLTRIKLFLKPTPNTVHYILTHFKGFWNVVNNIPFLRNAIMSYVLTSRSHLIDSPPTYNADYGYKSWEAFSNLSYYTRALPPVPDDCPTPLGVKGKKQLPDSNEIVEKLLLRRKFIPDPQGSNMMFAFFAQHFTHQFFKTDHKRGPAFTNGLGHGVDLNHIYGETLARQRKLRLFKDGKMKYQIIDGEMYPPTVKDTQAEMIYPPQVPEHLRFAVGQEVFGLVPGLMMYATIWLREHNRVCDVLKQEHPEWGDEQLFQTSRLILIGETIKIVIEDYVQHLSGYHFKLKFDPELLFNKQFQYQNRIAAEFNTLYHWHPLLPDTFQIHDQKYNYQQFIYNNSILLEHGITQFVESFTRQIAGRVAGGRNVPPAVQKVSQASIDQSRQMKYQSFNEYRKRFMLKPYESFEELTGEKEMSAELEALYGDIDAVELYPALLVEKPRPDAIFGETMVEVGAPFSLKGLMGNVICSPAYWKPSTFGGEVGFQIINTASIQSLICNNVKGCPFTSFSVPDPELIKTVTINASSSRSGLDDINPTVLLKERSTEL
Description: Cyclooxygenase (COX-2) enzyme inhibition assay, COX (human) Inhibitor Screening Assay Kit. It counts as biochemical. Particulars: compound at 10 μM; in vitro, human COX-2 isoenzyme; ELISA incubation 18 hours; read-out: % Inhibition( COX2) Mean ± SEM. The procedure: (§1) According to manufacturer instructions, a COX inhibition assay was performed using COX (human) Inhibitor Screening Assay Kit for the compounds 5c, 5d, 5h, 5k, 5l, 5m, and 6d. All reagents and buffers were prepared in ultrapure water. All stock solutions of the compounds and the positive controls (Indomethacin and Celecoxib) were dissolved in DMSO. In each inhibitor sample tube, 160 μL reaction buffer, 10 μL of heme, 10 μL of diluted COX-1 or COX-2 enzyme, and 10 μL of the diluted inhibitor was added to get a final concentration of 100 μM. […] 10 μL of the vehicle control (DMSO) was added to the background tubes, and COX enzyme's 100% initial activity was obtained. All reaction tubes were incubated for 10 minutes at 37° C. Following this incubation, 10 μL of the substrate, arachidonic acid (AA), was added to all test tubes, mixed, and further incubated for precisely 30 seconds at 37° C. Then, 30 μL of SnCl2 solution was added to each reaction tube to stop the enzyme catalysis. All reaction tubes were removed from the incubator, vortexed, and incubated again for 5 min at room temperature. Reaction tubes were stored at 4° C. to quantify the prostaglandin formation by competitive enzyme-linked immunosorbent assay (ELISA). ELISA standards were prepared in test tubes to perform the competitive ELISA, and dilutions were prepared with the ELISA buffer. The standards, COX reaction dilutions, and background samples were serially diluted. After that, 50 μL of the diluted standards, COX background, COX 100% initial activity, and COX inhibitor samples were transferred to the corresponding wells of 96 well ELISA plate. Blank (to assess the background absorbance caused by Ellman's reagent) and total activity (TA) (to determine the enzymatic activity of the AChE-linked tracer) wells were left empty, 100 μL and 50 μL of the ELISA buffer were added to the nonspecific binding (NSB) and maximum binding (BO), respectively. Prostaglandin screening AChE tracer (50 μL) and prostaglandin screening ELISA antiserum (50 μL) were added to corresponding wells except for TA. The plate was covered with a plastic film, wrapped with foil to protect from light, and incubated for 18 hours at room temperature. Following incubation, the plate was washed and developed with 200 μL of Ellman's reagent to all wells, and 5 μL of tracer was added to TA well. The plate was covered with foil, placed on an orbital shaker, and incubated for 60-90 minutes. Finally, the plate reading was done at a wavelength of 405 nm with a Microplate reader from BioTek (by Agilent), and data were collected using Gen5™ (by Agilent) analysis software.
(§2) In vitro catalytic inhibition data of compounds 5c, 5d, 5h, 5k, 5l, 5m, and 6d at 10 μM against human COX-1 and COX-2 isoenzymes is listed in Table 1.
In general terms: An ELISA detects its analyte on a solid surface through an enzyme-linked reagent.

A further test has as its target T2, human COX-1 (Homo sapiens, UniProt P23219).
T2 construct: purchased
As to the kind of experiment: Cyclooxygenase (COX-1) enzyme inhibition assay, COX (human) Inhibitor Screening Assay Kit. The test is classed as biochemical. Particulars: compound at 10 μM; in vitro, human COX-1 isoenzyme; ELISA incubation 18 hours; read-out: % Inhibition( COX1) Mean ± SEM. The procedure: as §1, §2

T2 sequence (P23219 24-599): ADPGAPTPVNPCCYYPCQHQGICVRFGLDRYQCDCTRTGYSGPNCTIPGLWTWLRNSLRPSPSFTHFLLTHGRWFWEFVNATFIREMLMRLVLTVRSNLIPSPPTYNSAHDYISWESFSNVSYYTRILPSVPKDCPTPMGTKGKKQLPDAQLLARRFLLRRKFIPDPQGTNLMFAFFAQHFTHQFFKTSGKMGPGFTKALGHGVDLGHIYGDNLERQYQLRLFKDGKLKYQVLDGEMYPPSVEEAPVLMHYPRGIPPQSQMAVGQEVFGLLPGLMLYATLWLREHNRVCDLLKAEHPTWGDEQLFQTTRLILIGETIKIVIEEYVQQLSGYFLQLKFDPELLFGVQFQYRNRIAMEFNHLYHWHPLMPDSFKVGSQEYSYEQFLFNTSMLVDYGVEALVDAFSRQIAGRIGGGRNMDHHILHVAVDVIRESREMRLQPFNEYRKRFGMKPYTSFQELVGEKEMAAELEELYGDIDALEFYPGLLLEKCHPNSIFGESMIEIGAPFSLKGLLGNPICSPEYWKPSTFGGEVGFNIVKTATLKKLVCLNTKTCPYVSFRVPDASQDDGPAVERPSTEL

In the case of `CN1/C(=C\c2ccc(Br)o2)C(=O)N/C1=N\C(=O)Nc1ccccc1F` [Compound 5c, 1-{(2E,5Z)-5-[(5-Bromofuran-2-yl)methylidene]-1-methyl-4-oxoimidazolidin-2-ylidene}-3-(2-fluorophenyl)urea], the figures for the inhibition at 10 µM on human COX-2 and on human COX-1 were 78 ± 15.5% and 17 ± 6.5%, respectively.

Consider `CN1/C(=C\c2ccc(-c3ccccc3[N+](=O)[O-])o2)C(=O)N/C1=N\C(=O)Nc1ccccc1F` [Compound 5d, 1-(2-Fluorophenyl)-3-[(2E,5Z)-1-methyl-5-{[5-(2-nitrophenyl)furan-2-yl]methylidene}-4-oxoimidazolidin-2-ylidene]urea], for which the inhibition at 10 µM on human COX-2 was found to be 97 ± 0.5%; at human COX-1 it was 57 ± 0.15%.

As for `CN1/C(=C\c2ccc(-c3ccccc3[N+](=O)[O-])o2)C(=O)N/C1=N\C(=S)Nc1cccc(Cl)c1` [Compound 6d, 1-(3-Chlorophenyl)-3-[(2E,5Z)-1-methyl-5-{[5-(2-nitrophenyl)furan-2-yl]methylidene}-4-oxoimidazolidin-2-ylidene]thiourea], the inhibition at 10 µM at human COX-2 was 54 ± 8.5%; at human COX-1 it was -14 ± 5.5%.

For the molecule `CN1/C(=C\c2ccc(-c3ccccc3[N+](=O)[O-])o2)C(=O)N/C1=N\C(=O)Nc1cccc(F)c1` [Compound 5h, 1-(3-Fluorophenyl)-3-[(2E,5Z)-1-methyl-5-{[5-(2-nitrophenyl)furan-2-yl]methylidene}-4-oxoimidazolidin-2-ylidene]urea], the inhibition at 10 µM at human COX-2 is 39 ± 2%; on human COX-1, 51 ± 7%.

For the molecule `CN1/C(=C\c2ccc(Br)o2)C(=O)N/C1=N\C(=O)Nc1ccc(F)cc1` [Compound 5k, 1-{(2E,5Z)-5-[(5-Bromofuran-2-yl)methylidene]-1-methyl-4-oxoimidazolidin-2-ylidene}-3-(4-fluorophenyl)urea], the inhibition at 10 µM on human COX-2 amounted to 89 ± 3%; on human COX-1 it was 26 ± 6.5%.

With `CN1/C(=C\c2ccc(-c3ccccc3[N+](=O)[O-])o2)C(=O)N/C1=N\C(=O)Nc1ccc(F)cc1` [Compound 5l, 1-(4-Fluorophenyl)-3-[(2E,5Z)-1-methyl-5-{[5-(2-nitrophenyl)furan-2-yl]methylidene}-4-oxoimidazolidin-2-ylidene]urea], the figures for the inhibition at 10 µM on human COX-2 and on human COX-1 were 20 ± 5.5% and 31 ± 2.5%, respectively.

In the case of `CN1/C(=C\c2ccc([N+](=O)[O-])cc2)C(=O)N/C1=N\C(=O)Nc1ccc(Cl)cc1Cl` [Compound 5m, 1-(2,4-Dichlorophenyl)-3-[(2E,5Z)-1-methyl-5-(4-nitrobenzylidene)-4-oxoimidazolidin-2-ylidene]urea], the inhibition at 10 µM on human COX-2 worked out at 69 ± 2.5%; at human COX-1, 5 ± 23.5%.
